Columns and labels:
Type in all cases: ADME
[1] = (§1) The drug is tested on Bifidobacterium adolescentis strain: DSM20083 for biotransformation under anaerobic condition. The drug concentrations were measured over 6 timepoints collected between 0 and 12 hours of incubation by liquid-chromatography-coupled mass spectrometry (LC–MS); design: dose 5 uM, timepoint 0, 1.5, 3, 6, 9, 12 hours; settings: 5 µM
[2] = The drug is tested on Capnocytophaga ochracea strain: DSM7271 for biotransformation under anaerobic condition. The drug concentrations were measured over 6 timepoints collected between 0 and 12 hours of incubation by liquid-chromatography-coupled mass spectrometry (LC–MS); design: dose 5 uM, timepoint 0, 1.5, 3, 6, 9, 12 hours; settings: 5 µM
[3] = The drug is tested on Faecalibacterium prausnitzii strain: DSM17677 for biotransformation under anaerobic condition. The drug concentrations were measured over 6 timepoints collected between 0 and 12 hours of incubation by liquid-chromatography-coupled mass spectrometry (LC–MS); design: dose 5 uM, timepoint 0, 1.5, 3, 6, 9, 12 hours; settings: faecalibacterium duncaniae, 5 µM
[4] = The drug is tested on Gemella morbillorum strain: DSM20572 for biotransformation under anaerobic condition. The drug concentrations were measured over 6 timepoints collected between 0 and 12 hours of incubation by liquid-chromatography-coupled mass spectrometry (LC–MS); design: dose 5 uM, timepoint 0, 1.5, 3, 6, 9, 12 hours; settings: 5 µM
[5] = The drug is tested on Lactobacillus gasseri strain: DSM20243 for biotransformation under anaerobic condition. The drug concentrations were measured over 6 timepoints collected between 0 and 12 hours of incubation by liquid-chromatography-coupled mass spectrometry (LC–MS); design: dose 5 uM, timepoint 0, 1.5, 3, 6, 9, 12 hours; settings: 5 µM
[6] = The drug is tested on Lactobacillus paracasei strain: ATCC27092 for biotransformation under anaerobic condition. The drug concentrations were measured over 6 timepoints collected between 0 and 12 hours of incubation by liquid-chromatography-coupled mass spectrometry (LC–MS); design: dose 5 uM, timepoint 0, 1.5, 3, 6, 9, 12 hours; settings: lacticaseibacillus paracasei, 5 µM
[7] = The drug is tested on Lactobacillus reuteri strain: DSM20016 for biotransformation under anaerobic condition. The drug concentrations were measured over 6 timepoints collected between 0 and 12 hours of incubation by liquid-chromatography-coupled mass spectrometry (LC–MS); design: dose 5 uM, timepoint 0, 1.5, 3, 6, 9, 12 hours; settings: limosilactobacillus reuteri, 5 µM
[8] = The drug is tested on Streptococcus salivarius strain: DSM20560 for biotransformation under anaerobic condition. The drug concentrations were measured over 6 timepoints collected between 0 and 12 hours of incubation by liquid-chromatography-coupled mass spectrometry (LC–MS); design: dose 5 uM, timepoint 0, 1.5, 3, 6, 9, 12 hours; settings: 5 µM
[9] = The drug is tested on Streptococcus sanguinis strain: DSM20567 for biotransformation under anaerobic condition. The drug concentrations were measured over 6 timepoints collected between 0 and 12 hours of incubation by liquid-chromatography-coupled mass spectrometry (LC–MS); design: dose 5 uM, timepoint 0, 1.5, 3, 6, 9, 12 hours; settings: 5 µM
[10] = (§2) The drug is tested on Actinomyces graevenitzii strain: DSM15540 for biotransformation under microaerobic condition. The drug concentrations were measured over 6 timepoints collected between 0 and 12 hours of incubation by liquid-chromatography-coupled mass spectrometry (LC–MS); design: dose 5 uM, timepoint 0, 1.5, 3, 6, 9, 12 hours; settings: 5 µM
[11] = The drug is tested on Actinomyces naeslundi strain: DSM43013 for biotransformation under microaerobic condition. The drug concentrations were measured over 6 timepoints collected between 0 and 12 hours of incubation by liquid-chromatography-coupled mass spectrometry (LC–MS); design: dose 5 uM, timepoint 0, 1.5, 3, 6, 9, 12 hours; settings: actinomyces naeslundii, 5 µM
[12] = The drug is tested on Lactobacillus paracasei strain: ATCC27092 for biotransformation under microaerobic condition. The drug concentrations were measured over 6 timepoints collected between 0 and 12 hours of incubation by liquid-chromatography-coupled mass spectrometry (LC–MS); design: dose 5 uM, timepoint 0, 1.5, 3, 6, 9, 12 hours; settings: lacticaseibacillus paracasei, 5 µM
[13] = The drug is tested on Lactobacillus reuteri strain: DSM20016 for biotransformation under microaerobic condition. The drug concentrations were measured over 6 timepoints collected between 0 and 12 hours of incubation by liquid-chromatography-coupled mass spectrometry (LC–MS); design: dose 5 uM, timepoint 0, 1.5, 3, 6, 9, 12 hours; settings: limosilactobacillus reuteri, 5 µM
[14] = The drug is tested on Streptococcus anginosus strain: DSM20563 for biotransformation under microaerobic condition. The drug concentrations were measured over 6 timepoints collected between 0 and 12 hours of incubation by liquid-chromatography-coupled mass spectrometry (LC–MS); design: dose 5 uM, timepoint 0, 1.5, 3, 6, 9, 12 hours; settings: 5 µM
[15] = The drug is tested on Streptococcus mitis strain: DSM12643 for biotransformation under microaerobic condition. The drug concentrations were measured over 6 timepoints collected between 0 and 12 hours of incubation by liquid-chromatography-coupled mass spectrometry (LC–MS); design: dose 5 uM, timepoint 0, 1.5, 3, 6, 9, 12 hours; settings: 5 µM
[16] = The drug is tested on Escherichia coli strain: DSM27469 for biotransformation under microaerobic condition. The drug concentrations were measured over 6 timepoints collected between 0 and 12 hours of incubation by liquid-chromatography-coupled mass spectrometry (LC–MS); design: dose 5 uM, timepoint 0, 1.5, 3, 6, 9, 12 hours; settings: 5 µM
[17] = as §1, with “the gut metagenome community of A-01 with ENA study accession number: PRJEB31790” for “Bifidobacterium adolescentis strain: DSM20083”, “7” for “6”; design: dose 5 uM, timepoint 0, 0.75, 1.5, 3, 6, 9, 12 hours; settings: 5 µM
[18] = as §1, with “the gut metagenome community of A-02 with ENA study accession number: PRJEB31790” for “Bifidobacterium adolescentis strain: DSM20083”, “7” for “6”; design: dose 5 uM, timepoint 0, 0.75, 1.5, 3, 6, 9, 12 hours; settings: 5 µM
[19] = as §1, with “the gut metagenome community of A-05 with ENA study accession number: PRJEB31790” for “Bifidobacterium adolescentis strain: DSM20083”, “7” for “6”; design: dose 5 uM, timepoint 0, 0.75, 1.5, 3, 6, 9, 12 hours; settings: 5 µM
[20] = as §1, with “the gut metagenome community of A-07 with ENA study accession number: PRJEB31790” for “Bifidobacterium adolescentis strain: DSM20083”, “7” for “6”; design: dose 5 uM, timepoint 0, 0.75, 1.5, 3, 6, 9, 12 hours; settings: 5 µM
[21] = as §1, with “the gut metagenome community of P-01 with ENA study accession number: PRJEB31790” for “Bifidobacterium adolescentis strain: DSM20083”, “7” for “6”; design: dose 5 uM, timepoint 0, 0.75, 1.5, 3, 6, 9, 12 hours; settings: 5 µM
[22] = as §1, with “the gut metagenome community of P-02 with ENA study accession number: PRJEB31790” for “Bifidobacterium adolescentis strain: DSM20083”, “7” for “6”; design: dose 5 uM, timepoint 0, 0.75, 1.5, 3, 6, 9, 12 hours; settings: 5 µM
[23] = as §1, with “the gut metagenome community of P-04 with ENA study accession number: PRJEB31790” for “Bifidobacterium adolescentis strain: DSM20083”, “7” for “6”; design: dose 5 uM, timepoint 0, 0.75, 1.5, 3, 6, 9, 12 hours; settings: 5 µM
[24] = as §1, with “the gut metagenome community of T-02 with ENA study accession number: PRJEB31790” for “Bifidobacterium adolescentis strain: DSM20083”, “7” for “6”; design: dose 5 uM, timepoint 0, 0.75, 1.5, 3, 6, 9, 12 hours; settings: 5 µM
[25] = as §1, with “the gut metagenome community of T-03 with ENA study accession number: PRJEB31790” for “Bifidobacterium adolescentis strain: DSM20083”, “7” for “6”; design: dose 5 uM, timepoint 0, 0.75, 1.5, 3, 6, 9, 12 hours; settings: 5 µM
[26] = as §2, with “the gut metagenome community of A-01 with ENA study accession number: PRJEB31790” for “Actinomyces graevenitzii strain: DSM15540”, “7” for “6”; design: dose 5 uM, timepoint 0, 0.75, 1.5, 3, 6, 9, 12 hours; settings: 5 µM
[27] = as §2, with “the gut metagenome community of A-05 with ENA study accession number: PRJEB31790” for “Actinomyces graevenitzii strain: DSM15540”, “7” for “6”; design: dose 5 uM, timepoint 0, 0.75, 1.5, 3, 6, 9, 12 hours; settings: 5 µM
[28] = as §2, with “the gut metagenome community of A-06 with ENA study accession number: PRJEB31790” for “Actinomyces graevenitzii strain: DSM15540”, “7” for “6”; design: dose 5 uM, timepoint 0, 0.75, 1.5, 3, 6, 9, 12 hours; settings: 5 µM
[29] = as §2, with “the gut metagenome community of A-08 with ENA study accession number: PRJEB31790” for “Actinomyces graevenitzii strain: DSM15540”, “7” for “6”; design: dose 5 uM, timepoint 0, 0.75, 1.5, 3, 6, 9, 12 hours; settings: 5 µM
[30] = as §2, with “the gut metagenome community of T-02 with ENA study accession number: PRJEB31790” for “Actinomyces graevenitzii strain: DSM15540”, “7” for “6”; design: dose 5 uM, timepoint 0, 0.75, 1.5, 3, 6, 9, 12 hours; settings: 5 µM
[31] = as §2, with “the gut metagenome community of T-05 with ENA study accession number: PRJEB31790” for “Actinomyces graevenitzii strain: DSM15540”, “7” for “6”; design: dose 5 uM, timepoint 0, 0.75, 1.5, 3, 6, 9, 12 hours; settings: 5 µM

| Structure (SMILES) | Bacterial Biotransformation [1] | Bacterial Biotransformation [2] | Bacterial Biotransformation [3] | Bacterial Biotransformation [4] | Bacterial Biotransformation [5] | Bacterial Biotransformation [6] | Bacterial Biotransformation [7] | Bacterial Biotransformation [8] | Bacterial Biotransformation [9] | Bacterial Biotransformation [10] | Bacterial Biotransformation [11] | Bacterial Biotransformation [12] | Bacterial Biotransformation [13] | Bacterial Biotransformation [14] | Bacterial Biotransformation [15] | Bacterial Biotransformation [16] | Bacterial Biotransformation [17] | Bacterial Biotransformation [18] | Bacterial Biotransformation [19] | Bacterial Biotransformation [20] | also measured |
| --- | --- | --- | --- | --- | --- | --- | --- | --- | --- | --- | --- | --- | --- | --- | --- | --- | --- | --- | --- | --- | --- |
| CCCC1O[C@@H]2C[C@H]3[C@@H]4CCC5=CC(=O)C=C[C@]5(C)[C@H]4[C@@H](O)C[C@]3(C)[C@]2(C(=O)CO)O1 (stereo partly drawn) [BUDESONIDE] | Compound NOT metabolized | Compound NOT metabolized | Compound NOT metabolized | Compound NOT metabolized | Compound NOT metabolized | Compound NOT metabolized | Compound NOT metabolized | Compound NOT metabolized | Compound NOT metabolized | Compound NOT metabolized | Compound NOT metabolized | Compound NOT metabolized | Compound NOT metabolized | Compound NOT metabolized | Compound NOT metabolized | Compound NOT metabolized | Compound NOT metabolized | Compound NOT metabolized | Compound NOT metabolized | Compound metabolized | Bacterial Biotransformation [21]: Compound metabolized; Bacterial Biotransformation [22]: Compound metabolized; Bacterial Biotransformation [23]: Compound NOT metabolized; Bacterial Biotransformation [24]: Compound NOT metabolized; Bacterial Biotransformation [25]: Compound NOT metabolized; Bacterial Biotransformation [26]: Compound NOT metabolized; Bacterial Biotransformation [27]: Compound metabolized; Bacterial Biotransformation [28]: Compound metabolized; Bacterial Biotransformation [29]: Compound metabolized; Bacterial Biotransformation [30]: Compound NOT metabolized; Bacterial Biotransformation [31]: Compound NOT metabolized |
| CO[C@H]1C[C@@H]2CC[C@@H](C)[C@@](O)(O2)C(=O)C(=O)N2CCCC[C@H]2C(=O)O[C@H]([C@H](C)C[C@@H]2CC[C@@H](O)[C@H](OC)C2)CC(=O)[C@H](C)/C=C(\C)[C@@H](O)[C@@H](OC)C(=O)[C@H](C)C[C@H](C)/C=C/C=C/C=C/1C [SIROLIMUS] | Compound NOT metabolized | Compound metabolized | Compound NOT metabolized | Compound metabolized | Compound metabolized | Compound NOT metabolized | Compound NOT metabolized | Compound metabolized | Compound metabolized | Compound metabolized | Compound NOT metabolized | Compound NOT metabolized | Compound NOT metabolized | Compound NOT metabolized | Compound NOT metabolized | Compound NOT metabolized | Compound NOT metabolized | Compound metabolized | Compound metabolized | Compound metabolized | Bacterial Biotransformation [21]: Compound NOT metabolized; Bacterial Biotransformation [22]: Compound NOT metabolized; Bacterial Biotransformation [23]: Compound metabolized; Bacterial Biotransformation [24]: Compound metabolized; Bacterial Biotransformation [25]: Compound NOT metabolized; Bacterial Biotransformation [26]: Compound NOT metabolized; Bacterial Biotransformation [27]: Compound metabolized; Bacterial Biotransformation [28]: Compound metabolized; Bacterial Biotransformation [29]: Compound metabolized; Bacterial Biotransformation [30]: Compound metabolized; Bacterial Biotransformation [31]: Compound NOT metabolized |
| C[C@H]1C[C@H]2[C@@H]3CCC4=CC(=O)C=C[C@]4(C)[C@@]3(F)[C@@H](O)C[C@]2(C)[C@@]1(O)C(=O)CO [BETAMETHASONE] | Compound NOT metabolized | Compound NOT metabolized | Compound NOT metabolized | Compound NOT metabolized | Compound NOT metabolized | Compound NOT metabolized | Compound NOT metabolized | Compound NOT metabolized | Compound NOT metabolized | Compound NOT metabolized | Compound NOT metabolized | Compound NOT metabolized | Compound NOT metabolized | Compound NOT metabolized | Compound NOT metabolized | Compound NOT metabolized | Compound NOT metabolized | Compound metabolized | Compound NOT metabolized | Compound metabolized | Bacterial Biotransformation [21]: Compound NOT metabolized; Bacterial Biotransformation [22]: Compound metabolized; Bacterial Biotransformation [23]: Compound NOT metabolized; Bacterial Biotransformation [24]: Compound metabolized; Bacterial Biotransformation [25]: Compound NOT metabolized; Bacterial Biotransformation [26]: Compound NOT metabolized; Bacterial Biotransformation [27]: Compound NOT metabolized; Bacterial Biotransformation [28]: Compound NOT metabolized; Bacterial Biotransformation [29]: Compound metabolized; Bacterial Biotransformation [30]: Compound metabolized; Bacterial Biotransformation [31]: Compound NOT metabolized |

— ChEMBL document CHEMBL5724806, “Unraveling interindividual differences and functional consequences of gut microbial metabolism of immunosuppressants” (2024)
